According to US20130143304A9, “LIGF-TYPE SYSTEMS FOR BIOCONVERSION OF LIGNIN-DERIVED COMPOUNDS” (priority 2010, published 2013):

system: not listed separately; test: in vitro biochemical assay for beta-etherase activity on fluorescent substrate MUAV (clarified E. coli cell extracts, 4MU fluorescence); settings: MUAV substrate
Experimental: This example describes a method for gene expression in E. coli, as well as beta-etherase biochemical assays. Expression of known and putative beta-etherase genes was performed using 5 ml cultures of the recombinant E. coli strains described herein in Luria Broth medium by induction of gene expression using isopropylthiogalactoside (IPTG) to a final concentration of 0.1 mM. Following induction, and cell harvest, the cells were disrupted using either sonication or the BPER (Invitrogen) cell lysis system.
In vitro reactions were performed in a total volume of 200 ul and contained: 25 mM TrisHCl pH 7.5; 0.5 mM dithiothreitol; 1 mM glutathione; 0.05 mM or 0.1 mM MUAV; 10 ul of clarified cell extract used to initiate the reactions. Following incubation for 2.5 hours at room temperature, a 50 ul sample of the reactions was terminated using 150 uL of 300 mM glycine/NaOH buffer pH 9. The formation of 4 methylumbelliferone (4MU) upon hydrolysis of the aryl ether bond was monitored by the increase in fluorescence at λex=360 nm and λem=450 nm using a Spectramax UV/visible/fluorescent spectrophotometer.
The total protein concentrations of the cell lysates were determined using the BCA reagent system for protein quantification (Pierce). […]

| Molecule | fold more efficient than S. paucimobilis ligE beta-etherase |
| --- | --- |
| ligE1: N. aromaticivorans beta-etherase, glutathione S-transferase-like polypeptide, recombinantly expressed in E. coli (protein) MAANNTITFYDLALSTGATISPFVWATKYALKHKGFDLDVVPGGFTGILERTGGKTERLPAIVDDGEFVLDSWGIVEYLDAKYPDRPVLIPHESVAATLKALDNWFWNAAVGPWMFCFCQDYRDLSLPQDHEYVTHSREKMLGRKLEEVQAGREERLPKISAALEPLRAALAQHQWLGGSSPNYADYRIMGGILFTASVCKTPVLANDDPLRDWIERCLDLYGGLGRHPGLFPLFGLEQREGDPDLFNRAAGQGGIYKRNTGPESTRAETQRITEGMKK | approximately 75 fold |

same assay, conditions: MUAV substrate; concentration not given

| Molecule | total activity (beta-etherase) |
| --- | --- |
| LigF2: N. aromaticivorans beta-etherase, glutathione S-transferase-like polypeptide, recombinantly expressed in E. coli (protein) MALKYYHAEPLANSLKSMVPLKEKGLAYESIYVDLHKFEQHQPWFTAINPEGQVPVLDHDGTIITHTTVINEYLEDAFPDAQPADAPLRPRDPVGAARMRYWNKFIDEHVMNYVSMHGWHRMVGVIARNIASGDFEKLLESIPLPDQRKKWATARSGFSEADLANATAKIEYALDKVEKQLGETKWLAGDTYTLADINFYSHCGAMVERMFPEMEVARRAPRLCEWRDRVAARPAVAEALKSEDRTAPGLRVWSGEVR | 1206 rfu/ug |

same assay, conditions: reactions containing 0.1 mM MUAV substrate; E. coli cell extracts expressing the protein

| Molecule | total activity (beta-etherase) |
| --- | --- |
| ligE1: N. aromaticivorans beta-etherase, glutathione S-transferase-like polypeptide, recombinantly expressed in E. coli (protein) MAANNTITFYDLALSTGATISPFVWATKYALKHKGFDLDVVPGGFTGILERTGGKTERLPAIVDDGEFVLDSWGIVEYLDAKYPDRPVLIPHESVAATLKALDNWFWNAAVGPWMFCFCQDYRDLSLPQDHEYVTHSREKMLGRKLEEVQAGREERLPKISAALEPLRAALAQHQWLGGSSPNYADYRIMGGILFTASVCKTPVLANDDPLRDWIERCLDLYGGLGRHPGLFPLFGLEQREGDPDLFNRAAGQGGIYKRNTGPESTRAETQRITEGMKK | 529 rfu/ug |
| ligE: S. paucimobilis ligE beta-etherase, positive control polypeptide (protein) MARNNTITLYDLQLESGCTISPYVWRTKYALKHKGFDIDIVPGGFTGILERTGGRSERVPVIVDDGEWVLDSWVIAEYLDEKYPDRPMLFEGPTQKNLMKFLDNWLWSTAVGPWFRCYILDYHDLSLPQDRDYVRWSREQWFLGGQRLEDVQAGREDRLPLVPPTLEPFRRILAETKWLGGDQPNFADYSALAVFLWTASVARTPPLTEDDPLRDWLDRGFDLFDGLGRHPGMNPLFGLKLREGDPEPFVRQTGPAGAGGQALNKGPQTTKMPPRVAEKAD | 7 rfu/ug |

system: Escherichia coli; test: not given; settings: benzaldehyde derivatives; each compound alone; cited from earlier work

| Molecule | antibacterial activity against Escherichia coli |
| --- | --- |
| O=Cc1ccc(O)c(O)c1O [2,3,4-trihydroxybenzaldehyde] | antibacterial activity |
| O=Cc1cccc(O)c1O [2,3-dihydroxybenzaldehyde] | antibacterial activity |
| O=Cc1c(O)cc(O)cc1O [2,4,6-trihydroxybenzaldehyde] | antibacterial activity |
| O=Cc1ccc(O)cc1O [2,4-dihydroxybenzaldehyde] | antibacterial activity |
| O=Cc1cc(O)ccc1O [2,5-dihydroxybenzaldehyde] | antibacterial activity |
| COc1cccc(C=O)c1O [2-hydroxy-3-methoxybenzaldehyde] | antibacterial activity |
| COc1ccc(O)c(C=O)c1 [2-hydroxy-5-methoxybenzaldehyde] | antibacterial activity |
| O=Cc1ccccc1O [2-hydroxybenzaldehyde] | antibacterial activity |
| COc1cc(O)cc(OC)c1C=O [4-hydroxy-2,6-dimethoxybenzaldehyde] | antibacterial activity |

same assay, conditions: known; each compound alone; cited from earlier work

| Molecule | antimicrobial activity against Escherichia coli |
| --- | --- |
| O=Cc1ccc(O)cc1 [4-hydroxybenzaldehyde] | antimicrobial activity |
| O=Cc1ccc(CO)o1 [5-hydroxymethylfurfural] | antimicrobial activity |
| O=Cc1ccco1 [furfural] | antimicrobial activity |
| COc1cc(C=O)cc(OC)c1O [syringaldehyde] | antimicrobial activity |
| COc1cc(C=O)ccc1O [vanillin] | antimicrobial activity |

system: yeast Saccharomyces cerevisiae; test: not given; settings: each compound alone; cited from earlier work

| Molecule | antifungal activity against the yeast Saccharomyces cerevisiae |
| --- | --- |
| COc1ccc(C=O)cc1OC [Veratraldehyde] | significant antifungal activities |
| O=C(O)C=Cc1ccccc1 [cinnamic acid] | significant antifungal activities |
| O=C(O)/C=C/c1cccc(O)c1 [m-coumaric acid] | significant antifungal activities |
| O=C(O)/C=C/c1ccccc1O [o-coumaric acid] | significant antifungal activities |
| O=C(O)/C=C/c1ccc(O)cc1 [p-coumaric acid] | significant antifungal activities |
| COc1cc(C(=O)O)ccc1O [vanillic acid] | significant antifungal activities |
| COc1cc(CCC(C)=O)ccc1O [vanillylacetone] | significant antifungal activities |
